The values that follow are results of earlier work, collected in US20030114534A1, “Pharmaceutical preparation for apthous ulcers” (priority 2001, published 2003).

The data set relates to apthous lesions. The conditions noted are these: applied locally, 250 mg. in 10 ml. of water, three times a day.

In the case of `CN(C)[C@@H]1C(O)=C(C(N)=O)C(=O)[C@@]2(O)C(O)=C3C(=O)c4c(O)ccc(Cl)c4[C@@](C)(O)[C@H]3C[C@@H]12` [Aureomycin], the analgesic effect lasting result is on record as “one-half to two”.
